Legend:
CelDAF-12 = CelDAF-12 (Caenorhabditis elegans, UniProt G5EFF5); assay: cell-based
D. immitis iL3 larvae = assay: in vitro molting of infective third-stage larvae (iL3) into L4; assay type: cell-based, Dirofilaria immitis

Sequence of CelDAF-12 (G5EFF5 516-753): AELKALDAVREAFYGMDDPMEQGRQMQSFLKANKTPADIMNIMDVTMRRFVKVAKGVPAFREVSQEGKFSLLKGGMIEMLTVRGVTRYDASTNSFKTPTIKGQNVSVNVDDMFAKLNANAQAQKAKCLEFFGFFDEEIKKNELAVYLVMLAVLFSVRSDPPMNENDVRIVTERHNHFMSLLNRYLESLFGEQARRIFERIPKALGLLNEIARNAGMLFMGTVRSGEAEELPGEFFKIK

## CC(CCCC(C)C1CCC2C3=CCC4CC(=O)CCC4(C)C3CCC21C)C(=O)O [Δ7-DA, (25S)-Δ7-dafachronic acid]
CelDAF-12
  EC50: 16 nM
D. immitis iL3 larvae
  number of free cuticles (completed molt, L4) versus DMSO control: significantly higher
  start of the molting process (day in culture): 3 to 4 days
D. immitis iL3 larvae; 10 µM
  overall effect on molting of iL3 into L4: induced a rapid development of iL3 into L4
D. immitis iL3 larvae; 10 µM, day 5 or 6
  percentage of iL3 which had initiated but not completed the molt, compared to DMSO control: low percentage

Source: PMC7343802, “The development of the dog heartworm is highly sensitive to sterols which activate the orthologue of the nuclear receptor DAF-12” (Scientific Reports, 2020)
